Publication PMC12138593, “Synthesis, Crystal Design and Anticancer Potential of Novel Cu(II), Ni(II), and Pd(II) Complexes with Carbazate Ligand” (ACS Omega, 2025)

Experiments:
[1] = test system: A2780cis; assay: MTT cytotoxicity assay, A2780cis cisplatin-resistant ovarian cancer cells; assay type: cell-based, human; details: 48 h, IC50 ± SD
Description: (§1) Human cell lines A549 (lung cancer, ATCC No. CCL-185), MRC-5 (nontumoral lung, ATCC No. CCL-171), MCF-7 (breast cancer, ATCC No. HTB-22), and A2780cis (cisplatin-resistant ovarian cancer, ECACC No. 93112517) were used to evaluate the cytotoxic activity of the metal complexes. The A549 and MRC-5 cell lines were cultured in DMEM (Dulbecco’s Modified Eagle’s Medium), while the MCF-7 and A2780cis cell lines were maintained in RPMI-1640 (Roswell Park Memorial Institute) medium. Both media were supplemented with 10% fetal bovine serum (FBS), penicillin (100 U/mL), streptomycin ([…]), and L-glutamine (2 mM). The cells were grown in monolayers using disposable 25 cm^2 flasks and incubated at 37 °C in a 5% CO2 atmosphere.
(§2) The cytotoxicity of the compounds was determined using the MTT colorimetric assay (3-(4,5-dimethylthiazol-2-yl)-2,5-diphenyl tetrazolium bromide), as described by Mosmann. The cells were trypsinized for counting and concentration adjustment and then seeded in 96-well plates (1.5 × 10^4 cells/well). The plates were incubated at 37 °C in a 5% CO2 atmosphere for 24 h to allow cell adhesion. […] Absorbance was measured at 570 nm using a Varioskan LUX Multimode Microplate Reader (VL000D0). […]

[2] = test system: A549; assay: MTT cytotoxicity assay, A549 lung cancer cells; assay type: cell-based, human; details: IC50 ± SD
Description: as §1, §2

[3] = test system: MCF-7; assay: MTT cytotoxicity assay, MCF-7 breast cancer cells; assay type: cell-based, human; details: IC50 ± SD
Description: as §1, §2

[4] = test system: MRC-5; assay: MTT cytotoxicity assay, MRC-5 noncancerous lung cells; assay type: cell-based, human; details: IC50 ± SD
Description: as §1, §2

[5] = Molar conductance in DMSO over 48 h; assay type: physicochemical; details: 10^-3 M in DMSO, room temperature
Description: DMSO solutions (10^–3 M) of the Hapmc and metal(II) complexes were subjected to molar conductance measurements at room temperature over 48 h, and the observed values are presented in Table S2.
The solvents and reagents were purchased from commercial sources and used without purification. The FT-IR spectra of the compounds were obtained from KBr pellets, using an FT-IR Varian 640 spectrometer in the range of 4000–400 cm^–1. Electrospray ionization mass spectrometry analysis (ESI-MS) was performed on an AB Sciex Triple TOF 5600+ mass spectrometer in positive mode, with a voltage of 5500 V and source temperature of 200 °C. ^1H nuclear magnetic resonance spectra were collected on a Varian Mercury Plus (600 MHz), with TMS as internal reference and DMSO-d 6 as solvent. Elemental analysis of CHN was performed with a PerkinElmer/Series II 2400 analyzer. Electronic spectra were obtained using a UV–vis–NIR Varian Cary 5000 spectrophotometer using 20 μM or 1 mM solutions prepared in methanol or DMF. The molar conductance of a 10^–3 M solution of ligand and metal complexes in DMSO was measured at room temperature using a Quimis Q405 M conduct meter.

Row | SMILES | IC50 [1] | IC50 ([2]; 48 h) | IC50 ([3]; 48 h) | IC50 ([4]; 48 h) | IC50 ([1]; Homo sapiens, A2780cis) | IC50 ([2]; Homo sapiens, A549, 48 h) | Molar conductivity, 0 hours ([5]; 0 hours) | Molar conductivity, 24 hours ([5]; 24 hours) | Molar conductivity, 48 hours ([5]; 48 hours) | IC50 ([3]; Homo sapiens, MCF7, 48 h) | IC50 ([4]; Homo sapiens, MRC5, 48 h)
1 | N.N.[Cl][Pt][Cl] [Cisplatin, reference compound] | 37 µM | 11.5 µM | 14 µM | 29.1 µM | – | – | – | – | – | – | –
2 | COC(=O)N/N=C(\C)c1ccccn1 [Hapmc, 2-acetylpyridine-methylcarbazate] | – | – | – | – | > 100 µM | > 100 µM | 1.90 Ω -1.cm2.mol-1 | 2.37 Ω -1.cm2.mol-1 | 2.48 Ω -1.cm2.mol-1 | > 100 µM | > 100 µM
